ChEMBL document CHEMBL3585326, “Discovery of potent carbonic anhydrase and acetylcholine esterase inhibitors: novel sulfamoylcarbamates and sulfamides derived from acetophenones” (Bioorg Med Chem, 2015)
pIC50, pKi: −log10 of the molar value.

biological target: Acetylcholinesterase (Homo sapiens, UniProt P22303)
Sequence (P22303 whole entry): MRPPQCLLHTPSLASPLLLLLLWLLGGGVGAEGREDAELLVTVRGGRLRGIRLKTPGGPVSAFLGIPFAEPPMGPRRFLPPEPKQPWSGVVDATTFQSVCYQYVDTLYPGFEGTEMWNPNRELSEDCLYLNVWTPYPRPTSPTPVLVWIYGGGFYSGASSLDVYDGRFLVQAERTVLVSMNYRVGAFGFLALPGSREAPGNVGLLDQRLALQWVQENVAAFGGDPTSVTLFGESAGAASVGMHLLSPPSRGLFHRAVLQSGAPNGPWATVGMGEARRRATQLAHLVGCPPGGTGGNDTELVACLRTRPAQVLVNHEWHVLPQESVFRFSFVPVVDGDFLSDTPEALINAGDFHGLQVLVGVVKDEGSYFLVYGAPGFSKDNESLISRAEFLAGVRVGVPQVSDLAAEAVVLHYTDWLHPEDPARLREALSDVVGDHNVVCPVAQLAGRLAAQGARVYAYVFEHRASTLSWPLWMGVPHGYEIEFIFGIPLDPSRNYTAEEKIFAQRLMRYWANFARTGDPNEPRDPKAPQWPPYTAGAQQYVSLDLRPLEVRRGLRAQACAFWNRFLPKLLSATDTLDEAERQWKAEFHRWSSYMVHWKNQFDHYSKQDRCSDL
Description: Inhibition of acetylcholinesterase (unknown origin) assessed as AChI hydrolysis using AChI and DTNB as substrate by Ellman's method

Q: With `COc1ccc(C(C)NS(N)(=O)=O)cc1` (stereo not given) as the compound, how does the pIC50 read?
A: The pIC50 was 10.57.

Q: What about the pKi of the same compound?
A: The pKi was 11.20.

Q: `COc1ccccc1C(C)NS(N)(=O)=O` (stereo not given) was tested. Which pIC50 did it give?
A: The pIC50 was 10.57.

Q: What about the pKi of the same compound?
A: Its pKi is 10.42.

Q: How did the pIC50 turn out when `COc1cccc(OC)c1C(C)NS(N)(=O)=O` (stereo not given) was run?
A: The pIC50 was 10.57.

Q: And the pKi?
A: The pKi was 11.09.

Q: How did the pIC50 turn out when `COc1ccc(C(C)NS(N)(=O)=O)cc1OC` (stereo not given) was run?
A: Its pIC50 is 10.57.

Q: And the pKi?
A: The pKi was 11.31.

Q: `COc1ccc(C(C)NS(=O)(=O)NC(=O)OCc2ccccc2)cc1` (stereo not given) was tested. Which pIC50 did it give?
A: The pIC50 was 10.57.

Q: And the pKi?
A: Its pKi is 11.35.

Q: What does the source list for `COc1ccccc1C(C)NS(=O)(=O)NC(=O)OCc1ccccc1` (stereo not given)?
A: pIC50: 10.57; pKi: 11.25

Q: How did the pIC50 turn out when `COc1ccc(OC)c(C(C)NS(N)(=O)=O)c1` (stereo not given) was run?
A: The pIC50 was 10.57.

Q: And the pKi?
A: The pKi was 11.25.

Q: `COc1ccc(C(C)NS(=O)(=O)NC(=O)OCc2ccccc2)cc1OC` (stereo not given) was tested. Which pIC50 did it give?
A: The pIC50 was 10.57.

Q: What about the pKi of the same compound?
A: Its pKi is 11.29.

Q: Which results are given for `COc1cccc(OC)c1C(C)NS(=O)(=O)NC(=O)OCc1ccccc1` (stereo not given)?
A: pIC50: 10.57; pKi: 10.98

Q: With `COc1ccc(OC)c(C(C)NS(=O)(=O)NC(=O)OCc2ccccc2)c1` (stereo not given) as the compound, how does the pIC50 read?
A: The pIC50 was 10.57.

Q: And the pKi?
A: Its pKi is 10.64.
